According to ChEMBL document CHEMBL1133243, “Synthesis and antimicrobial activity of some isoindolin-1-ones derivatives” (2000):
Converted amounts (≈) assume the structure as drawn. The source made the active and inactive calls. The calls are words filed in the database; no cut-off is given here.

How the values were obtained:
Bacteria [1] = assay: Antimicrobial activity against gram positive and gram negative bacteria; Inactive; assay type: functional, organism-based
[2] = Antimicrobial activity against aspergillus sp and Candida albicans; Inactive; assay type: functional
Pseudomonas aeruginosa = assay: Minimum inhibitory concentration against Pseudomonas aeruginosa; assay type: functional
Escherichia coli = assay: Minimum inhibitory concentration against Escherichia coli.; assay type: functional
Staphylococcus aureus [3] = assay: Minimum inhibitory concentration against Staphylococcus aureus; assay type: functional
Bacillus subtilis [4] = assay: Minimum inhibitory concentration against Bacillus subtilis; assay type: functional
Bacteria [5] = assay: Compound tested for in vitro antimicrobial activity against gram positive and gram negative bacteria; Active; assay type: functional, organism-based
Kocuria rosea = assay: Minimum inhibitory concentration against Micrococcus roseus; assay type: functional
Staphylococcus aureus [6] = assay: Compound was evaluated for minimum inhibitory concentration against Staphylococcus aureus; assay type: functional
Bacteria [7] = assay: Antimicrobial activity against gram positive and gram negative bacteria; Active; assay type: functional, organism-based
Staphylococcus aureus [8] = assay: Compound was evaluated for minimum inhibitory concentration against Staphylococcus aureus;Zero growth inhibition; assay type: functional, organism-based
Bacillus subtilis [9] = assay: Compound was evaluated for minimum inhibitory concentration against Bacillus subtilis;Zero growth inhibition; assay type: functional, organism-based

SMILES	Activity (Bacteria [1])	Activity [2]	MIC (Pseudomonas aeruginosa)	MIC (Escherichia coli)	MIC (Staphylococcus aureus [3])	MIC (Bacillus subtilis [4])	Activity (Bacteria [5])	MIC (Kocuria rosea)	Inhibition (Staphylococcus aureus [6])	Activity (Bacteria [7])	MIC (Staphylococcus aureus [8])	MIC (Bacillus subtilis [9])
O=C1c2ccccc2C2OCC(Cc3ccccc3)N12 (stereo not drawn)	inactive	inactive										
C[C@@H](C(=O)O)N1Cc2ccccc2C1=O		inactive	3600 µg/mL (≈ 17.5 mM)	1620 µg/mL (≈ 7.89 mM)	1620 µg/mL (≈ 7.89 mM)	729 µg/mL (≈ 3.55 mM)	Active	1620 µg/mL (≈ 7.89 mM)				
CC(C)C1COC2c3ccccc3C(=O)N21 (stereo not drawn)	inactive											
O=C(O)[C@H](c1ccccc1)N1Cc2ccccc2C1=O		inactive	3600 µg/mL (≈ 13.5 mM)	1620 µg/mL (≈ 6.06 mM)		529 µg/mL (≈ 1.98 mM)		729 µg/mL (≈ 2.73 mM)	0%	Active		
CC(C)[C@@H](C(=O)O)N1Cc2ccccc2C1=O		inactive	3600 µg/mL (≈ 15.4 mM)	1620 µg/mL (≈ 6.94 mM)	3600 µg/mL (≈ 15.4 mM)	1620 µg/mL (≈ 6.94 mM)		1620 µg/mL (≈ 6.94 mM)		Active		
O=C1c2ccccc2C(O)N1Cc1ccccc1 (stereo not drawn)		inactive	3600 µg/mL (≈ 15 mM)	2610 µg/mL (≈ 10.9 mM)				1620 µg/mL (≈ 6.77 mM)		Active	Zero growth inhibition	Zero growth inhibition
CCC(C)C(C(=O)O)N1Cc2ccccc2C1=O (stereo not drawn)		inactive	3600 µg/mL (≈ 14.6 mM)	1620 µg/mL (≈ 6.55 mM)	3600 µg/mL (≈ 14.6 mM)	729 µg/mL (≈ 2.95 mM)		1180 µg/mL (≈ 4.75 mM)		Active		
CC(C)[C@H](C(=O)O)N1Cc2ccccc2C1=O		inactive	3600 µg/mL (≈ 15.4 mM)	3600 µg/mL (≈ 15.4 mM)	3600 µg/mL (≈ 15.4 mM)	1620 µg/mL (≈ 6.94 mM)		1620 µg/mL (≈ 6.94 mM)		Active		
C[C@H](C(=O)O)N1Cc2ccccc2C1=O		inactive	3600 µg/mL (≈ 17.5 mM)	3600 µg/mL (≈ 17.5 mM)	1620 µg/mL (≈ 7.89 mM)	328 µg/mL (≈ 1.6 mM)	Active	2610 µg/mL (≈ 12.7 mM)				
Cc1ccc(N2Cc3ccccc3C2=O)cc1	inactive	inactive										
O=C(O)[C@H](CO)N1Cc2ccccc2C1=O		inactive	3600 µg/mL (≈ 16.3 mM)	1620 µg/mL (≈ 7.32 mM)	3600 µg/mL (≈ 16.3 mM)	729 µg/mL (≈ 3.3 mM)		2610 µg/mL (≈ 11.8 mM)		Active		
O=C(O)C[C@@H](C(=O)O)N1Cc2ccccc2C1=O		inactive	1620 µg/mL (≈ 6.5 mM)	729 µg/mL (≈ 2.93 mM)	3600 µg/mL (≈ 14.4 mM)	147 µg/mL (≈ 0.59 mM)		2610 µg/mL (≈ 10.5 mM)		Active		
COc1ccc(N2Cc3ccccc3C2=O)cc1	inactive	inactive										
CC(c1ccccc1)N1Cc2ccccc2C1=O (stereo not drawn)	inactive	inactive										
CC(C)CC(C(=O)O)N1Cc2ccccc2C1=O (stereo not drawn)		inactive	3600 µg/mL (≈ 14.6 mM)	3600 µg/mL (≈ 14.6 mM)	3600 µg/mL (≈ 14.6 mM)	729 µg/mL (≈ 2.95 mM)		3600 µg/mL (≈ 14.6 mM)		Active		
O=C(O)[C@H](Cc1ccccc1)N1Cc2ccccc2C1=O		inactive	3600 µg/mL (≈ 12.8 mM)	3600 µg/mL (≈ 12.8 mM)		1180 µg/mL (≈ 4.18 mM)		2610 µg/mL (≈ 9.28 mM)	0%	Active		
O=C1c2ccccc2C2OCC(c3ccccc3)N12 (stereo not drawn)	inactive	inactive										
